Reference: ChEMBL document CHEMBL4765469, “2-((3,5-Dinitrobenzyl)thio)quinazolinones: Potent Antimycobacterial Agents Activated by Deazaflavin (F)-Dependent Nitroreductase (Ddn)” (J Med Chem, 2021)
≈ marks a conversion by molar mass, not a printed value. Calls of active or inactive are those of the source. The calls are words filed in the database; no cut-off is given here.

Columns and labels:
[1] = tested on: Mycobacterium tuberculosis; assay: Antitubercular activity against Mycobacterium tuberculosis resistant mutants generated by plating on 7H11/0ADC agar plates in presence of 3.75 to 15 uM 2-((3,5-Dinitrobenzyl)thio)quinazolin-4(3H)-one followed by sensitivity testing; assay type: functional, organism-based
[2] = tested on: Mycobacterium tuberculosis; assay: Antitubercular activity against Mycobacterium tuberculosis 5A1 with fbiC mutant deficient in cofactor F420 biosynthesis assessed as inhibition of all visible growth grown under 7H9/ glucose liquid culture incubated for 7 to 14 days; assay type: functional; conditions: time 7-14 day
[3] = Ratio of MIC for antitubercular activity against Mycobacterium tuberculosis resistant mutants generated by plating on 7H11/0ADC agar plates in presence of 3.75 to 15 uM 2-((3,5-Dinitrobenzyl)thio)quinazolin-4(3H)-one to MIC for antitubercular activity against wild type Mycobacterium tuberculosis H37Rv ATCC 27294; assay type: functional
[4] = tested on: Mycobacterium tuberculosis; assay: Antitubercular activity against Mycobacterium tuberculosis T3 with fgd mutant deficient in F420 reduction assessed as inhibition of all visible growth grown under 7H9/ glucose liquid culture incubated for 7 to 14 days; assay type: functional; conditions: time 7-14 day
[5] = tested on: Mycobacterium tuberculosis; assay: Antitubercular activity against Mycobacterium tuberculosis T2 expressing nitroreductase rv3547 A76E mutant assessed as inhibition of all visible growth grown under 7H9/ glucose liquid culture incubated for 7 to 14 days; assay type: functional; conditions: time 7-14 day

Structure (SMILES)	Activity [1]	MIC>99 [2]	Ratio [3]	MIC>99 [4]	MIC>99 [5]
C[C@]1(COc2ccc(N3CCC(Oc4ccc(OC(F)(F)F)cc4)CC3)cc2)Cn2cc([N+](=O)[O-])nc2O1	inactive				
O=c1[nH]c(SCc2cc([N+](=O)[O-])cc([N+](=O)[O-])c2)nc2ccccc12		>50 µM	> 40	37 µM (≈ 13.3 µg/mL)	37 µM (≈ 13.3 µg/mL)
O=[N+]([O-])c1cn2c(n1)OC[C@@H](OCc1ccc(OC(F)(F)F)cc1)C2	inactive				
Cc1ccc2nc(SCc3cc([N+](=O)[O-])cc([N+](=O)[O-])c3)[nH]c(=O)c2c1		>50 µM		>50 µM	>50 µM
NNC(=O)c1ccncc1	Active				
CO[C@H]1/C=C/O[C@@]2(C)Oc3c(C)c(O)c4c(O)c(c(/C=N/N5CCN(C)CC5)c(O)c4c3C2=O)NC(=O)/C(C)=C\C=C\[C@H](C)[C@H](O)[C@@H](C)[C@@H](O)[C@@H](C)[C@H](OC(C)=O)[C@@H]1C	Active				
O=c1[nH]c(SCc2cc([N+](=O)[O-])cc([N+](=O)[O-])c2)nc2ccc(Br)cc12		>50 µM		>50 µM	>50 µM
O=c1[nH]c(SCc2cc([N+](=O)[O-])cc([N+](=O)[O-])c2)nc2ccc(N3CCOCC3)cc12		>=50 uM		>=50 uM	19 µM (≈ 8.43 µg/mL)
O=c1[nH]c(SCc2cc([N+](=O)[O-])cc([N+](=O)[O-])c2)nc2cccnc12		37 µM (≈ 13.3 µg/mL)		37 µM (≈ 13.3 µg/mL)	50 µM (≈ 18 µg/mL)
CN1CCN(c2ccc3nc(SCc4cc([N+](=O)[O-])cc([N+](=O)[O-])c4)[nH]c(=O)c3c2)CC1		37 µM (≈ 16.9 µg/mL)		25 µM (≈ 11.4 µg/mL)	37 µM (≈ 16.9 µg/mL)
O=c1[nH]c(SCc2cc([N+](=O)[O-])cc([N+](=O)[O-])c2)nc2ccc(F)cc12		>50 µM		>=50 uM	>=50 uM
